# Results as given in PubChem BioAssay (NCI).
#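 Step 1: Grow cells in 96-well plates. Step 2: Expose to compound for 48 hours at 5 concentrations. Step 3: Interpolate endpoints linearly; if unreached, use highest concentration. GI50 = concentration required for 50% inhibition of growth. At the TGI there is no net growth.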
# Columns and labels:
# Assay in all cases: inhibition of tumour cell growth, NCI panel, 48 h
# [1] = system: HOP-62 NSCLC
# [2] = system: EKVX NSCLC
# [3] = system: PC-3 prostate
# [4] = system: DU-145 prostate
# [5] = system: SN12C renal
# [6] = system: SR leukemia
# [7] = system: K-562 leukemia
# [8] = system: NCI-H23 lung
# [9] = system: HOP-92 NSCLC
# [10] = system: HT29 colon
# [11] = system: LOX IMVI melanoma
# [12] = system: NCI-H522 lung
# [13] = system: HS 578T breast
# [14] = system: T-47D breast
# [15] = system: MCF7 breast
# [16] = system: SNB-19 CNS
# [17] = system: COLO 205 colon
# [18] = system: UACC-62 melanoma
# [19] = system: MDA-MB-231 breast
# [20] = system: RPMI-8226 leukemia
# [21] = system: HL-60(TB) leukemia
# [22] = system: KM12 colon
# [23] = system: NCI-H460 lung
# [24] = system: NCI/ADR-RES ovarian
# [25] = system: MOLT-4 leukemia
# [26] = system: SF-295 CNS
# [27] = system: IGROV1 ovarian
# [28] = system: UACC-257 melanoma
# [29] = system: HCT-15 colon
# [30] = system: HCC-2998 colon
# [31] = system: 786-0 renal
# [32] = system: SNB-75 CNS
# [33] = system: A549 NSCLC
# [34] = system: TK-10 renal
# [35] = system: RXF 393 renal
# [36] = system: UO-31 renal
# [37] = system: SW-620 colon
# [38] = system: OVCAR-3 ovarian
# [39] = system: U251 CNS
# [40] = system: A498 renal
# [41] = system: SK-OV-3 ovarian
# [42] = system: BT-549 breast
# [43] = system: CCRF-CEM leukemia
# [44] = system: SF-268 CNS
# [45] = system: SK-MEL-28 melanoma
# [46] = system: HCT-116 colon
# [47] = system: OVCAR-4 ovarian
# [48] = system: OVCAR-8 ovarian
# [49] = system: SK-MEL-2 melanoma
# [50] = system: MALME-3M melanoma
# [51] = system: M14 melanoma
# [52] = system: NCI-H226 lung
# [53] = system: SK-MEL-5 melanoma
# [54] = system: MDA-MB-435
# [55] = system: CAKI-1 renal
# [56] = system: OVCAR-5 ovarian
# [57] = system: ACHN renal
# [58] = system: SF-539 CNS
structure (smiles),measurement,setting,value
C=CC(=O)N1CCN(c2nc(=O)n(-c3c(C)ccnc3C(C)C)c3nc(-c4c(O)cccc4F)c(F)cc23)[C@@H](C)C1,GI50,[1],< 0.0291 µM
same,TGI,[1],> 66.5 µM
same,GI50,[2],48.6 µM
same,TGI,[2],> 100 µM
same,GI50,[3],31.8 µM
same,TGI,[3],> 96.3 µM
same,GI50,[4],30.9 µM
same,TGI,[4],98.3 µM
same,GI50,[5],38 µM
same,TGI,[5],> 100 µM
same,GI50,[6],17.3 µM
same,TGI,[6],70.3 µM
same,GI50,[7],23.2 µM
same,TGI,[7],> 85 µM
same,TGI,[8],> 47.2 µM
same,GI50,[9],29.8 µM
same,TGI,[9],> 58.8 µM
same,GI50,[10],35.9 µM
same,TGI,[10],> 100 µM
same,GI50,[11],16.9 µM
same,TGI,[11],38.1 µM
same,GI50,[12],29.8 µM
same,TGI,[12],> 100 µM
same,GI50,[13],45.7 µM
same,TGI,[13],> 100 µM
same,GI50,[14],40.9 µM
same,TGI,[14],> 100 µM
same,GI50,[15],34.1 µM
same,TGI,[15],> 100 µM
same,GI50,[16],57.8 µM
same,TGI,[16],> 100 µM
same,GI50,[17],39.9 µM
same,TGI,[17],> 100 µM
same,GI50,[18],28.4 µM
same,TGI,[18],> 73.6 µM
same,GI50,[19],25.4 µM
same,TGI,[19],85.2 µM
same,GI50,[20],18.1 µM
same,TGI,[20],> 90.9 µM
same,GI50,[21],20.5 µM
same,TGI,[21],53.8 µM
same,GI50,[22],23.4 µM
same,TGI,[22],54 µM
same,GI50,[23],43.4 µM
same,TGI,[23],> 100 µM
same,GI50,[24],> 100 µM
same,TGI,[24],> 100 µM
same,GI50,[25],18.7 µM
same,TGI,[25],71 µM
same,GI50,[26],44.4 µM
same,TGI,[26],> 100 µM
same,GI50,[27],> 44.7 µM
same,TGI,[27],> 73.9 µM
same,GI50,[28],> 56.2 µM
same,TGI,[28],> 100 µM
same,GI50,[29],29.5 µM
same,TGI,[29],> 74.3 µM
same,GI50,[30],19.1 µM
same,TGI,[30],35.9 µM
same,GI50,[31],14.7 µM
same,TGI,[31],36.3 µM
same,GI50,[32],36.1 µM
same,TGI,[32],> 91.4 µM
same,GI50,[33],> 46.5 µM
same,TGI,[33],> 77.2 µM
same,GI50,[34],23.8 µM
same,TGI,[34],> 90.9 µM
same,GI50,[35],17.7 µM
same,TGI,[35],59.2 µM
same,GI50,[36],> 62.3 µM
same,TGI,[36],> 100 µM
same,GI50,[37],36.8 µM
same,TGI,[37],> 100 µM
same,GI50,[38],30.1 µM
same,TGI,[38],> 86 µM
same,GI50,[39],48.7 µM
same,TGI,[39],> 100 µM
same,GI50,[40],11.8 µM
same,TGI,[40],> 54.1 µM
same,GI50,[41],> 77.8 µM
same,TGI,[41],> 100 µM
same,GI50,[42],15.8 µM
same,TGI,[42],> 51.3 µM
same,GI50,[43],25.7 µM
same,TGI,[43],83.1 µM
same,GI50,[44],35.6 µM
same,TGI,[44],> 100 µM
same,GI50,[45],> 58.7 µM
same,TGI,[45],> 100 µM
same,GI50,[46],15.1 µM
same,TGI,[46],36.3 µM
same,GI50,[47],35.8 µM
same,TGI,[47],> 100 µM
same,GI50,[48],30.9 µM
same,TGI,[48],> 100 µM
same,GI50,[49],31 µM
same,TGI,[49],> 78 µM
same,GI50,[50],20.8 µM
same,TGI,[50],64 µM
same,GI50,[51],17 µM
same,TGI,[51],> 52.6 µM
same,GI50,[52],25.4 µM
same,TGI,[52],> 100 µM
same,GI50,[53],27.8 µM
same,TGI,[53],> 59.1 µM
same,GI50,[54],25.1 µM
same,TGI,[54],70 µM
same,GI50,[55],40.3 µM
same,TGI,[55],> 100 µM
same,GI50,[56],62.9 µM
same,TGI,[56],> 100 µM
same,GI50,[57],40.9 µM
same,TGI,[57],> 100 µM
same,GI50,[58],23.3 µM
same,TGI,[58],64.2 µM
